# ChEMBL document CHEMBL4765266, “Design, synthesis and structure-activity relationships of 4-phenyl-1H-1,2,3-triazole phenylalanine derivatives as novel HIV-1 capsid inhibitors with promising antiviral activities” (Eur J Med Chem, 2020)
# The source made the active and inactive calls. No cut-off for these calls is given here.
# Experiments:
# TZM = experiment: Cytotoxicity against in human TZM-bl cells assessed as reduction in cell viability measured after 2 days by CytoTox-Glo cytotoxicity assay; details: 48 h
# in vitro [1] = details: human, TZM-bl cells
# Description: Selectivity index, ratio of CC50 for human TZM-bl cells to EC50 for HIV1 NL4-3 infected in human TZM-bl cells
# [2] = system: Human immunodeficiency virus 1; experiment: Antiviral activity against HIV1 NL4-3 infected in human TZM-bl cells assessed as reduction in virus induced cytopathic effect measured after 2 days by luciferase gene expression assay; assay type: functional, organism-based; details: Human immunodeficiency virus 1, NL4-3, TZM-bl, 48 h
# [3] = system: Human immunodeficiency virus 1; experiment: Antiviral activity against HIV1 NL4-3 Env-deficient pseudotype virus infected in human U87/CD4/CCR5 cells assessed by reduction in viral production in early stage measured after 48 hrs by luciferase activity based single-round infection assay; assay type: functional, organism-based; details: Human immunodeficiency virus 1, NL4-3, U87/CD4/CCR5, 48 h
# [4] = human, microsomes, 1 h
# Description: Metabolic stability in human liver microsomes assessed as parent compound remaining in absence of NADPH after 1 hr by LC/MS/MS method
# [5] = Metabolic stability in human plasma assessed as parent compound remaining after 120 mins by LC/MS/MS method; assay type: ADME, cell-free; details: 2 h
# U87/CD4/CCR5 = experiment: Effect on HIV1 NL4-3 capsid protein assembly at 50 uM measured every 1 min for 19 mins by Spectrophotometer method; details: Human immunodeficiency virus 1
# [6] = system: Human immunodeficiency virus 1; experiment: Antiviral activity against HIV1 NL4-3 Env-pseudotype virus in human U87/CD4/CCR5 cells assessed as reduction in p24 production at 10 uM by ELISA reader relative to control; assay type: functional; details: Human immunodeficiency virus 1, NL4-3, U87/CD4/CCR5
# [7] = Binding affinity to HIV1 NL4-3 capsid protein monomer assessed as dissociation constant by SPR analysis; parameters: species or system Human immunodeficiency virus 1
# in vitro [8] = details: human, liver microsomes
# Description: Metabolic stability in human liver microsomes assessed as parent compound remaining in presence of NADPH after 1 hr by LC/MS/MS method
# [9] = Binding affinity to HIV1 NL4-3 capsid protein hexamer assessed as dissociation constant by SPR analysis; parameters: species or system Human immunodeficiency virus 1
# [10] = Metabolic stability in human plasma assessed as parent compound remaining after 30 mins by LC/MS/MS method; assay type: ADME, cell-free; details: 0.5 h
# [11] = Metabolic stability in human plasma assessed as parent compound remaining after 10 mins by LC/MS/MS method; assay type: ADME, cell-free
# [12] = Metabolic stability in human plasma assessed as parent compound remaining after 60 mins by LC/MS/MS method; assay type: ADME, cell-free; details: 1 h
# [13] = human, microsomes, 1 h; remark: listed apart in the source
# [14] = human, microsomes, 1 h; remark: listed apart in the source
# [15] = system: Human immunodeficiency virus 1; experiment: Antiviral activity against HIV1 NL4-3 Env-deficient pseudotype virus infected in human U87/CD4/CCR5 cells assessed by reduction in viral production in late stage measured after 48 hrs by luciferase activity based single-round infection assay; assay type: functional, organism-based; details: Human immunodeficiency virus 1, NL4-3, U87/CD4/CCR5, 48 h
SMILES,CC50 (TZM),selectivity ratio (in vitro [1]),EC50 [2],other results
COc1ccc(N(C)C(=O)[C@H](Cc2ccccc2)NC(=O)Cn2cc(-c3ccc(NC(=O)c4ccc(-c5ccccc5)cc4)cc3)nn2)cc1,> 15 µM,> 1.23,12.2 µM,–
COC(=O)c1ccc(C(=O)Nc2ccccc2-c2cn(CC(=O)N[C@@H](Cc3ccccc3)C(=O)N(C)c3ccc(OC)cc3)nn2)cc1,> 15.5 µM,–,> 15.5 µM,–
COc1ccc(C(=O)Nc2ccccc2-c2cn(CC(=O)N[C@@H](Cc3ccccc3)C(=O)N(C)c3ccc(OC)cc3)nn2)cc1,> 16.2 µM,–,> 16.2 µM,–
COC(=O)c1ccc(C(=O)Nc2ccc(-c3cn(CC(=O)N[C@@H](Cc4ccccc4)C(=O)N(C)c4ccc(OC)cc4)nn3)cc2)cc1,> 15.5 µM,–,> 15.5 µM,–
COc1ccc(N(C)C(=O)[C@H](Cc2ccccc2)NC(=O)Cn2cc(-c3ccccc3NC(=O)c3ccc(F)cc3)nn2)cc1,> 16.5 µM,> 4.76,3.46 µM,–
COc1ccc(N(C)C(=O)[C@H](Cc2ccccc2)NC(=O)Cn2cc(-c3ccccc3NC(=O)c3ccc(C#N)cc3)nn2)cc1,> 16.3 µM,–,> 16.3 µM,–
COc1ccc(N(C)C(=O)[C@H](Cc2ccccc2)NC(=O)Cn2cc(-c3cccc(NC(=O)c4ccc(F)cc4)c3)nn2)cc1,> 16.5 µM,–,> 16.5 µM,–
COc1ccc(N(C)C(=O)[C@H](Cc2ccccc2)NC(=O)Cn2cc(-c3ccc(NC(=O)c4ccccc4OC)cc3)nn2)cc1,> 16.2 µM,–,> 16.2 µM,–
COc1ccc(N(C)C(=O)[C@H](Cc2ccccc2)NC(=O)Cn2cc(-c3ccccc3NC(=O)c3ccccc3F)nn2)cc1,> 16.5 µM,> 5.27,3.13 µM,IC50 [3]: 8.18 µM; Stabilty [4]: 122.1%; Stabilty [5]: 107.4%; Activity (U87/CD4/CCR5): inactive; inhibition at 10 µM [6]: 15%; Kd [7]: 7.95 µM; remaining at 1 h (in vitro [8]): 0.3%; Kd [9]: 6.04 µM; Stabilty [10]: 94.6%; Stabilty [11]: 91.3%; Stabilty [12]: 86.9%; t1/2 [13]: 0.9 min; CLH [14]: 1559.4 µL/min/mg; IC50 [15]: 0.32 µM
COc1ccc(N(C)C(=O)[C@H](Cc2ccccc2)NC(=O)Cn2cc(-c3cccc(N)c3)nn2)cc1,> 20.6 µM,> 6.25,3.3 µM,Kd [7]: 15.8 µM; Kd [9]: 4 µM
C[C@]12CC[C@H]3[C@@H](CCC4=CC(=O)CC[C@@]43C)[C@@H]1CC[C@@H]2O [TESTOSTERONE],–,–,–,t1/2 [13]: 7.4 min; CLH [14]: 188.3 µL/min/mg
COc1ccc(N(C)C(=O)[C@H](Cc2ccccc2)NC(=O)Cn2cc(-c3cccc(NC(=O)c4ccc(C#N)cc4)c3)nn2)cc1,> 16.3 µM,> 1.27,12.9 µM,–
COC(=O)c1ccc(C(=O)Nc2cccc(-c3cn(CC(=O)N[C@@H](Cc4ccccc4)C(=O)N(C)c4ccc(OC)cc4)nn3)c2)cc1,> 15.5 µM,–,> 15.5 µM,–
COc1ccc(N(C)C(=O)[C@H](Cc2ccccc2)NC(=O)Cn2cc(-c3ccccc3NC(=O)c3cccc(OC)c3)nn2)cc1,> 16.2 µM,> 1.27,12.8 µM,–
COc1ccc(N(C)C(=O)[C@H](Cc2ccccc2)NC(=O)Cn2cc(-c3cccc(NC(C)=O)c3)nn2)cc1,> 19 µM,> 1.28,14.8 µM,–
COc1ccc(N(C)C(=O)[C@H](Cc2ccccc2)NC(=O)Cn2cc(-c3ccccc3NC(C)=O)nn2)cc1,> 19 µM,> 4.76,3.99 µM,–
COc1ccc(N(C)C(=O)[C@H](Cc2ccccc2)NC(=O)Cn2cc(-c3ccc(NC(=O)c4cccc(F)c4)cc3)nn2)cc1,> 16.5 µM,> 1.3,12.7 µM,–
COc1ccc(N(C)C(=O)[C@H](Cc2ccccc2)NC(=O)Cn2cc(-c3ccc(NC(=O)c4cccc(OC)c4)cc3)nn2)cc1,> 16.2 µM,–,> 16.2 µM,–
COc1ccc(N(C)C(=O)[C@H](Cc2ccccc2)NC(=O)Cn2cc(-c3ccc(NC(C)=O)cc3)nn2)cc1,> 19 µM,–,> 19 µM,–
COc1ccc(C(=O)Nc2cccc(-c3cn(CC(=O)N[C@@H](Cc4ccccc4)C(=O)N(C)c4ccc(OC)cc4)nn3)c2)cc1,> 16.2 µM,–,> 16.2 µM,–
COc1ccc(N(C)C(=O)[C@H](Cc2ccccc2)NC(=O)Cn2cc(-c3cccc(NC(=O)c4ccc(-c5ccccc5)cc4)c3)nn2)cc1,> 15 µM,–,> 15 µM,–
